pIC50: −log10 of the molar value.
Columns and labels:
FAK [1] = target: T1, FAK (Homo sapiens, UniProt Q05397); experiment: Cell-based capture ELISA for inhibition of FAK autophosphorylation [pY397] in MiaPaCa2 cells
Protocol: Cell-Based Assays for Inhibition of FAK Autophosphorylation: MiaPaCa2 and U87MG
ELISA kit from Invitrogen (KHO0441).
Reagents Provided in Biosource FAK [pY397]
The cells were then suspended in cell assay medium.

FAK [2] = target: T1, FAK; experiment: biochemical
[3] = MIA-PaCa2 cells on fibronectin, 2 h, no plasma, read-out: Mean FAK Cell Mechanistic IC50 MIA-PaCa2
[4] = MIA-PaCa2 cells, + 50% human plasma, read-out: Mean FAK Cell Mechanistic IC50 + 50% hP MIA-PaCa2
[5] = MIA-PaCa2 cells, + 50% mouse plasma (Table 2), read-out: Mean FAK Cell Mechanistic IC50 + 50% mP MIA-PaCa2

T1 sequence (Q05397 whole entry): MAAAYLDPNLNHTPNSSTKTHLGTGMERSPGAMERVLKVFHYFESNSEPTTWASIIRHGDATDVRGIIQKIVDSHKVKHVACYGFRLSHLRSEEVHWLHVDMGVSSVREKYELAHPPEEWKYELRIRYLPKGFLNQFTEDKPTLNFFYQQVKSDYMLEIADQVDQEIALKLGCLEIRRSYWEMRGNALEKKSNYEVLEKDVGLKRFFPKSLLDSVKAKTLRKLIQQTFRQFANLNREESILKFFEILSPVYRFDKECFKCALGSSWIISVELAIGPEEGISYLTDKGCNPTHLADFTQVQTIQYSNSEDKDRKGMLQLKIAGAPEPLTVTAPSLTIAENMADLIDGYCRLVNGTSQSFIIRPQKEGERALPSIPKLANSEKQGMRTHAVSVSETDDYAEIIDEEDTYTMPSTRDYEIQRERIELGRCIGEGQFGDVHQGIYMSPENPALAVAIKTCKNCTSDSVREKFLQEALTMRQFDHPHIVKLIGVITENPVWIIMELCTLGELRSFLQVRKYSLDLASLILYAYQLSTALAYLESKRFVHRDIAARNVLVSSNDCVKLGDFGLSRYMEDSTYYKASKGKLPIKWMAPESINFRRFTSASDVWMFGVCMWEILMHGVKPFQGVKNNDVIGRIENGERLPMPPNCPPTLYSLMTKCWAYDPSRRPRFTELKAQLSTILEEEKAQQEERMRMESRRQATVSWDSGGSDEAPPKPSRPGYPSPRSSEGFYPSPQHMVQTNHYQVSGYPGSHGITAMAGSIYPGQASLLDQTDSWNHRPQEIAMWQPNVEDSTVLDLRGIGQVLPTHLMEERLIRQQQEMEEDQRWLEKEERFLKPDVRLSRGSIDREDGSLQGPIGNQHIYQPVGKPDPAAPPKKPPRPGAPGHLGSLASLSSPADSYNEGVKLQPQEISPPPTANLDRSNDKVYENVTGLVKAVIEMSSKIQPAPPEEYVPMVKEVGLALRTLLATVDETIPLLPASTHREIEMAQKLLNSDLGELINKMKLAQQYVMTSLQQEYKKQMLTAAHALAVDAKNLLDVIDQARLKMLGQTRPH

CCOP(=O)(Cc1ccc(Nc2ncc(C(F)(F)F)c(Nc3ccc(-c4cnn(C[C@H](O)CO)c4)c4c3C(=O)N(C)C4)n2)c(OC)c1)OCC [Example 70, Diethyl [4-({4-[(7-{1-[(2S)-2,3-dihydroxypropyl]-1H-pyrazol-4-yl}-2-methyl-3-oxo-2,3-dihydro-1H-isoindol-4-yl)amino]-5-(trifluoromethyl)pyrimidin-2-yl}amino)-3-methoxybenzyl]phosphonate]
pIC50 (FAK [1]; [3]): > 6.00
pIC50 (FAK [1]; [4]): > 6.00
pIC50 (FAK [2]): > 6.00

CCOP(=O)(Cc1ccc(Nc2ncc(C(F)(F)F)c(Nc3ccc(-c4cnn(C)c4)c4c3C(=O)N(C)C4)n2)c(OC)c1)OCC [Example 71, Diethyl (3-methoxy-4-{[4-{[2-methyl-7-(1-methyl-1H-pyrazol-4-yl)-3-oxo-2,3-dihydro-1H-isoindol-4-yl]amino}-5-(trifluoromethyl)pyrimidin-2-yl]amino}benzyl)phosphonate]
pIC50 (FAK [1]; [3]): > 6.00
pIC50 (FAK [1]; [4]): > 6.00
pIC50 (FAK [2]): > 6.00

CCOP(=O)(Cc1ccc(Nc2ncc(C(F)(F)F)c(Nc3ccc(-c4cnn(CC(C)(C)O)c4)c4c3C(=O)N(C)C4)n2)c(OC)c1)OCC [Example 72, Diethyl (4-{[4-({7-[1-(2-hydroxy-2-methylpropyl)-1H-pyrazol-4-yl]-2-methyl-3-oxo-2,3-dihydro-1H-isoindol-4-yl}amino)-5-(trifluoromethyl)pyrimidin-2-yl]amino}-3-methoxybenzyl)phosphonate]
pIC50 (FAK [1]; [5]): > 6.00
pIC50 (FAK [2]): > 6.00

CCOP(=O)(Cc1ccc(Nc2ncc(C(F)(F)F)c(Nc3ccc(C4=CCN(C(N)=O)CC4)c4c3C(=O)N(C)C4)n2)c(OC)c1)OCC [Example 73, Diethyl (4-{[4-{[7-(1-carbamoyl-1,2,3,6-tetrahydropyridin-4-yl)-2-methyl-3-oxo-2,3-dihydro-1H-isoindol-4-yl]amino}-5-(trifluoromethyl)pyrimidin-2-yl]amino}-3-methoxybenzyl)phosphonate]
pIC50 (FAK [1]; [5]): > 6.00
pIC50 (FAK [2]): > 6.00

CCOP(C)(=O)Cc1ccc(Nc2ncc(C(F)(F)F)c(Nc3ccc(C#CC(C)(C)O)c4c3C(=O)N(C)C4)n2)cc1 (stereo not drawn) [Example 75]
pIC50 (FAK [1]; [3]): > 6.00
pIC50 (FAK [1]; [4]): > 6.00
pIC50 (FAK [2]): > 6.00

CCOP(C)(=O)Cc1ccc(Nc2ncc(C(F)(F)F)c(Nc3ccc(C#CC(C)O)c4c3C(=O)N(C)C4)n2)cc1 (stereo not drawn) [Example 76, Ethyl (4-{[4-{[7-(3-hydroxybut-1-yn-1-yl)-2-methyl-3-oxo-2,3-dihydro-1H-isoindol-4-yl]amino}-5-(trifluoromethyl)pyrimidin-2-yl]amino}benzyl)methylphosphinate]
pIC50 (FAK [1]; [3]): > 6.00
pIC50 (FAK [1]; [4]): 5.00 to 6.00
pIC50 (FAK [2]): > 6.00

CCOP(C)(=O)Cc1ccc(Nc2ncc(C(F)(F)F)c(Nc3ccc(C#CCO)c4c3C(=O)N(C)C4)n2)cc1 (stereo not drawn) [Example 77, Ethyl (4-{[4-{[7-(3-hydroxyprop-1-yn-1-yl)-2-methyl-3-oxo-2,3-dihydro-1H-isoindol-4-yl]amino}-5-(trifluoromethyl)pyrimidin-2-yl]amino}benzyl)methylphosphinate]
pIC50 (FAK [1]; [3]): > 6.00
pIC50 (FAK [1]; [4]): > 6.00
pIC50 (FAK [2]): > 6.00

CCOP(C)(=O)Cc1ccc(Nc2ncc(C(F)(F)F)c(Nc3ccc(C(C)C)c4c3C(=O)N(C)C4)n2)cc1 (stereo not drawn) [Example 78, Ethyl methyl(4-{[4-{[2-methyl-3-oxo-7-(propan-2-yl)-2,3-dihydro-1H-isoindol-4-yl]amino}-5-(trifluoromethyl)pyrimidin-2-yl]amino}benzyl)phosphinate]
pIC50 (FAK [1]; [3]): > 6.00
pIC50 (FAK [2]): > 6.00

CCOP(C)(=O)Cc1ccc(Nc2ncc(C(F)(F)F)c(Nc3ccc(C4CCC(O)CC4)c4c3C(=O)N(C)C4)n2)cc1 (stereo not drawn) [Example 79, Ethyl (4-{[4-{[7-(4-hydroxycyclohexyl)-2-methyl-3-oxo-2,3-dihydro-1H-isoindol-4-yl]amino}-5-(trifluoromethyl)pyrimidin-2-yl]amino}benzyl)methylphosphinate]
pIC50 (FAK [1]; [3]): > 6.00
pIC50 (FAK [1]; [4]): > 6.00
pIC50 (FAK [2]): > 6.00

CCOP(C)(=O)Cc1ccc(Nc2ncc(C(F)(F)F)c(Nc3ccc(N4CCCC4)c4c3C(=O)N(C)C4)n2)cc1 (stereo not drawn) [Example 80, Ethyl methyl(4-{[4-{[2-methyl-3-oxo-7-(pyrrolidin-1-yl)-2,3-dihydro-1H-isoindol-4-yl]amino}-5-(trifluoromethyl)pyrimidin-2-yl]amino}benzyl)phosphinate]
pIC50 (FAK [1]; [3]): > 6.00
pIC50 (FAK [1]; [4]): > 6.00
pIC50 (FAK [2]): > 6.00

CCOP(C)(=O)Cc1ccc(Nc2ncc(C(F)(F)F)c(Nc3ccc(N4CCC(O)C4)c4c3C(=O)N(C)C4)n2)cc1 (stereo not drawn) [Example 81, Ethyl (4-{[4-{[7-(3-hydroxypyrrolidin-1-yl)-2-methyl-3-oxo-2,3-dihydro-1H-isoindol-4-yl]amino}-5-(trifluoromethyl)pyrimidin-2-yl]amino}benzyl)methylphosphinate]
pIC50 (FAK [1]; [3]): > 6.00
pIC50 (FAK [1]; [4]): > 6.00
pIC50 (FAK [2]): > 6.00

CCOP(C)(=O)Cc1ccc(Nc2ncc(C(F)(F)F)c(Nc3ccc(N4CCCCC4)c4c3C(=O)N(C)C4)n2)cc1 (stereo not drawn) [Example 82, Ethyl methyl(4-{[4-{[2-methyl-3-oxo-7-(piperidin-1-yl)-2,3-dihydro-1H-isoindol-4-yl]amino}-5-(trifluoromethyl)pyrimidin-2-yl]amino}benzyl)phosphinate]
pIC50 (FAK [1]; [3]): > 6.00
pIC50 (FAK [1]; [4]): > 6.00
pIC50 (FAK [2]): > 6.00

CCOP(=O)(Cc1ccc(Nc2ncc(C(F)(F)F)c(Nc3ccc(N4CCCC4)c4c3C(=O)N(C)C4)n2)c(OC)c1)OCC [Example 83, Diethyl (3-methoxy-4-{[4-{[2-methyl-3-oxo-7-(pyrrolidin-1-yl)-2,3-dihydro-1H-isoindol-4-yl]amino}-5-(trifluoromethyl)pyrimidin-2-yl]amino}benzyl)phosphonate]
pIC50 (FAK [1]; [5]): > 6.00
pIC50 (FAK [2]): > 6.00

CCOP(=O)(Cc1ccc(Nc2ncc(C(F)(F)F)c(Nc3ccc(N4CC[C@H](O)C4)c4c3C(=O)N(C)C4)n2)c(OC)c1)OCC [Example 84, Diethyl (4-{[4-({7-[(3S)-3-hydroxypyrrolidin-1-yl]-2-methyl-3-oxo-2,3-dihydro-1H-isoindol-4-yl}amino)-5-(trifluoromethyl)pyrimidin-2-yl]amino}-3-methoxybenzyl)phosphonate]
pIC50 (FAK [1]; [5]): > 6.00
pIC50 (FAK [2]): > 6.00

CCOP(=O)(Cc1ccc(Nc2ncc(C(F)(F)F)c(Nc3ccc(N4CCC(O)CC4)c4c3C(=O)N(C)C4)n2)c(OC)c1)OCC [Example 85, Diethyl (4-{[4-{[7-(4-hydroxypiperidin-1-yl)-2-methyl-3-oxo-2,3-dihydro-1H-isoindol-4-yl]amino}-5-(trifluoromethyl)pyrimidin-2-yl]amino}-3-methoxybenzyl)phosphonate]
pIC50 (FAK [1]; [5]): > 6.00
pIC50 (FAK [2]): > 6.00

CCOP(=O)(Cc1ccc(Nc2ncc(C(F)(F)F)c(Nc3ccc(N4CCCC(O)C4)c4c3C(=O)N(C)C4)n2)c(OC)c1)OCC (stereo not drawn) [Example 86, Diethyl (4-{[4-{[7-(3-hydroxypiperidin-1-yl)-2-methyl-3-oxo-2,3-dihydro-1H-isoindol-4-yl]amino}-5-(trifluoromethyl)pyrimidin-2-yl]amino}-3-methoxybenzyl)phosphonate]
pIC50 (FAK [1]; [5]): > 6.00
pIC50 (FAK [2]): > 6.00

CCOC(=O)[C@H]1CC[C@@H](c2ccc(Nc3nc(Nc4ccc(CP(=O)(OCC)OCC)cc4OC)ncc3C(F)(F)F)c3c2CN(C)C3=O)CC1 [Example 87, Ethyl cis-4-(7-{[2-({4-[(diethoxyphosphoryl)methyl]-2-methoxyphenyl}amino)-5-(trifluoromethyl)pyrimidin-4-yl]amino}-2-methyl-1-oxo-2,3-dihydro-1H-isoindol-4-yl)cyclohexanecarboxylate]
pIC50 (FAK [1]; [5]): > 6.00
pIC50 (FAK [2]): > 6.00

CCOC(=O)[C@H]1CC[C@H](c2ccc(Nc3nc(Nc4ccc(CP(=O)(OCC)OCC)cc4OC)ncc3C(F)(F)F)c3c2CN(C)C3=O)CC1 [Example 88, Ethyl trans-4-(7-{[2-({4-[(diethoxyphosphoryl)methyl]-2-methoxyphenyl}amino)-5-(trifluoromethyl)pyrimidin-4-yl]amino}-2-methyl-1-oxo-2,3-dihydro-1H-isoindol-4-yl)cyclohexanecarboxylate]
pIC50 (FAK [1]; [5]): > 6.00
pIC50 (FAK [2]): > 6.00

CCOP(=O)(Cc1ccc(Nc2ncc(C(F)(F)F)c(Nc3ccc([C@H]4CC[C@H](C(=O)O)CC4)c4c3C(=O)N(C)C4)n2)c(OC)c1)OCC [Example 90, Trans-4-(7-{[2-({4-[(diethoxyphosphoryl)methyl]-2-methoxyphenyl}amino)-5-(trifluoromethyl)pyrimidin-4-yl]amino}-2-methyl-1-oxo-2,3-dihydro-1H-isoindol-4-yl)cyclohexanecarboxylic acid]
pIC50 (FAK [1]; [5]): > 6.00
pIC50 (FAK [2]): > 6.00

CCOP(=O)(Cc1ccc(Nc2ncc(C(F)(F)F)c(Nc3ccc([C@H]4CC[C@@H](O)CC4)c4c3C(=O)N(C)C4)n2)c(OC)c1)OCC [Example 94, Diethyl (4-{[4-{[7-(cis-4-hydroxycyclohexyl)-2-methyl-3-oxo-2,3-dihydro-1H-isoindol-4-yl]amino}-5-(trifluoromethyl)pyrimidin-2-yl]amino}-3-methoxybenzyl)phosphonate]
pIC50 (FAK [1]; [5]): > 6.00
pIC50 (FAK [2]): > 6.00

CCOP(=O)(Cc1ccc(Nc2ncc(C(F)(F)F)c(Nc3ccc([C@H]4CC[C@H](N5CCN(C)CC5)CC4)c4c3C(=O)N(C)C4)n2)c(OC)c1)OCC [Example 96, Diethyl (3-methoxy-4-{[4-({2-methyl-7-[trans-4-(4-methylpiperazin-1-yl)cyclohexyl]-3-oxo-2,3-dihydro-1H-isoindol-4-yl}amino)-5-(trifluoromethyl)pyrimidin-2-yl]amino}benzyl)phosphonate]
pIC50 (FAK [1]; [5]): > 6.00
pIC50 (FAK [2]): > 6.00

Source: patent US9096624B2 (OSI Pharmaceuticals, LLC, priority 2009, dated 2015)
